Consider seven molecules from ChEMBL document CHEMBL4017465 (Bioorg Med Chem Lett, 2017).

What is called inhibition is the drop in the measured response relative to a control, in per cent. As usually defined, the pIC50 is the negative decadic logarithm of the IC50, by convention in mol/L.

pIC50: −log10 of the molar value.

Series [1] deals with T1, CYP3A4 (Homo sapiens, UniProt P08684). The experiment in a line: Inhibition of recombinant human CYP3A4 expressed in insect cells at 100 uM using DBOMF as substrate pretreated for 10 mins followed by substrate addition measured every minute for 15 mins in presence of NADP+ by fluorescence assay relative to control. In kind it is ADME. To be noted: probe DBOMF.
Another series has as its target Cytochrome P450 3A4 (Homo sapiens, UniProt P08684). Nature of the series: Inhibition of recombinant human CYP3A4 expressed in insect cells using DBOMF as substrate pretreated for 10 mins followed by substrate addition measured every minute for 15 mins in presence of NADP+ by fluorescence assay. Type of series: ADME.
The target of a further series is T2, Cytochrome P450 1A2 (Homo sapiens, UniProt P05177).
T2 sequence (P05177 whole entry): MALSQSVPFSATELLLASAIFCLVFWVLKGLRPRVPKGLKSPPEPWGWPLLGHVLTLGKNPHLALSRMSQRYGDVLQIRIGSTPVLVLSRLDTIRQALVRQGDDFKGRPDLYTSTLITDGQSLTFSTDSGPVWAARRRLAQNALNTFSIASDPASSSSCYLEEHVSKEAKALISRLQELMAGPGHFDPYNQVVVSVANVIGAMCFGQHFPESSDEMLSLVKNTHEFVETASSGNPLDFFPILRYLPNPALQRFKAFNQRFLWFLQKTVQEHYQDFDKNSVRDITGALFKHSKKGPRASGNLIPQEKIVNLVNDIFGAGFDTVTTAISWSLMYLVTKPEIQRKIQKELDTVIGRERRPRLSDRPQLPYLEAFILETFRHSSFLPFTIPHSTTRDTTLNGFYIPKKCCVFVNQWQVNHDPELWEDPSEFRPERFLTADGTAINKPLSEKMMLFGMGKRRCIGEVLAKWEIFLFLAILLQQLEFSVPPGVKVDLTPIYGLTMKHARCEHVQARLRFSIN
The experiment in a line: Inhibition of recombinant human CYP1A2 expressed in insect cells using EOMCC as substrate pretreated for 10 mins followed by substrate addition measured every minute for 15 mins in presence of NADP+ by fluorescence assay. Type of series: ADME.

Series [2] deals with T3, CYP1A2 (Homo sapiens, UniProt P05177).
T3 sequence (P05177 whole entry): T2 sequence (P05177 whole entry)
Nature of the series: Inhibition of recombinant human CYP1A2 expressed in insect cells at >1 uM using EOMCC as substrate pretreated for 10 mins followed by substrate addition measured every minute for 15 mins in presence of NADP+ by fluorescence assay relative to control. Type of series: ADME. Conditions: probe EOMCC.

In series [3] the target is T3, CYP1A2. Nature of the series: Inhibition of recombinant human CYP1A2 expressed in insect cells at <10 uM using EOMCC as substrate pretreated for 10 mins followed by substrate addition measured every minute for 15 mins in presence of NADP+ by fluorescence assay relative to control. Type of series: ADME. To be noted: probe EOMCC.
Series [4] addresses T3, CYP1A2. The experiment in a line: Inhibition of recombinant human CYP1A2 expressed in insect cells at 1 uM using EOMCC as substrate pretreated for 10 mins followed by substrate addition measured every minute for 15 mins in presence of NADP+ by fluorescence assay relative to control. Conditions: probe EOMCC.
The target in series [5] is T3, CYP1A2. Nature of the series: Inhibition of recombinant human CYP1A2 expressed in insect cells at 20 uM using EOMCC as substrate pretreated for 10 mins followed by substrate addition measured every minute for 15 mins in presence of NADP+ by fluorescence assay relative to control. Conditions: probe EOMCC.
Series [6] concerns the target T3, CYP1A2. Nature of the series: Inhibition of recombinant human CYP1A2 expressed in insect cells at 10 uM using EOMCC as substrate pretreated for 10 mins followed by substrate addition measured every minute for 15 mins in presence of NADP+ by fluorescence assay relative to control. To be noted: probe EOMCC.
Series [7] concerns the target T3, CYP1A2. Nature of the series: Inhibition of recombinant human CYP1A2 expressed in insect cells at 0.01 uM using EOMCC as substrate pretreated for 10 mins followed by substrate addition measured every minute for 15 mins in presence of NADP+ by fluorescence assay relative to control. Conditions: probe EOMCC.
Series [8] has as its target T1, CYP3A4. Nature of the series: Inhibition of recombinant human CYP3A4 expressed in insect cells at >= 1 uM using DBOMF as substrate pretreated for 10 mins followed by substrate addition measured every minute for 15 mins in presence of NADP+ by fluorescence assay relative to control. To be noted: probe DBOMF.

Sequence of Cytochrome P450 3A4 (P08684 whole entry): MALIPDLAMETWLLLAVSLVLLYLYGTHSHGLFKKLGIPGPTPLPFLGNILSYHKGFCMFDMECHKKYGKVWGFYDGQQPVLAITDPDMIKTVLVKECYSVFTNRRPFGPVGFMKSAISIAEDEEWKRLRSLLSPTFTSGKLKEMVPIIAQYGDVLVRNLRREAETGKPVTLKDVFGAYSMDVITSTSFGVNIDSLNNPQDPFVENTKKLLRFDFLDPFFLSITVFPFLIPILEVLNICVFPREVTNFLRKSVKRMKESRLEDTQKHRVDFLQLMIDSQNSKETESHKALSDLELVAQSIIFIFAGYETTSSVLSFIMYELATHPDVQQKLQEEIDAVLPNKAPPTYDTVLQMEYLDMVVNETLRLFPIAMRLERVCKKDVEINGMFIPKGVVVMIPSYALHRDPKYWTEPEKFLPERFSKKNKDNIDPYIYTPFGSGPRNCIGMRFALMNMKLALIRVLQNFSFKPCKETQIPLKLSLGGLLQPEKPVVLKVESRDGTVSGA
T1 sequence (P08684 whole entry): as above

With `Clc1ccc2c(NCc3ccccn3)c3c(nc2c1)CCCC3`, the inhibition at 0.25 h, 100 µM at CYP3A4 [1] came to 90%. Moreover, the pIC50 was 5.04 on Cytochrome P450 3A4 and 6.62 on Cytochrome P450 1A2. Further, the inhibition at 0.25 h at CYP1A2 [2] was over 80%.

With `COc1ccc(CNc2c3c(nc4ccccc24)CCCC3)cc1OC`, the inhibition at 0.25 h, 100 µM on CYP3A4 [1] was determined as 90%. Further, the inhibition at 0.25 h on CYP1A2 [3] is under 50%. The results for the negative-log IC50 (pIC50) on Cytochrome P450 3A4 and on Cytochrome P450 1A2 were 5.43 and 4.48, respectively.

`O=c1cc(-c2ccccc2)oc2c1ccc1ccccc12` [ALPHA-NAPHTHOFLAVONE]: on CYP1A2 [4], the inhibition at 0.25 h, 1 µM was over 80%.

Turning to `COc1ccc(CCNc2c3c(nc4cc(Cl)ccc24)CCCC3)cc1OC`, the inhibition at 0.25 h at CYP1A2 [3] is under 50%. The pIC50 at Cytochrome P450 1A2 is 4.65.

As to `Nc1c2c(nc3ccccc13)CCCC2` [TACRINE], on CYP3A4 [1], the inhibition at 0.25 h, 100 µM is 55%. Moreover, on CYP1A2 [5], the inhibition at 0.25 h, 20 µM was 75%. Moreover, at CYP1A2 [4], the inhibition at 0.25 h, 1 µM was 45%. Moreover, on CYP1A2 [6], the inhibition at 0.25 h, 10 µM turned out to be 75%. The pIC50 on Cytochrome P450 1A2 was 5.82. The inhibition at 0.25 h, 0.01 µM at CYP1A2 [7] came out at 14%.

For `COc1ccc(CNc2c3c(nc4cc(Cl)ccc24)CCCC3)cc1OC`, the inhibition at 0.25 h, 100 µM on CYP3A4 [1] is 90%. Moreover, at CYP1A2 [3], the inhibition at 0.25 h is under 50%. For the same molecule, the pIC50 is 4.86 on Cytochrome P450 3A4 and 5.07 at Cytochrome P450 1A2.

With `CC(=O)N1CCN(c2ccc(OCC3COC(Cn4ccnc4)(c4ccc(Cl)cc4Cl)O3)cc2)CC1` (configuration not stated) [KETOCONAZOLE], the inhibition at 0.25 h on CYP3A4 [8] is over 85%.
